Reference: PubChem BioAssay AID588652 (The Scripps Research Institute Molecular Screening Center, 2011)

Target: Krueppel-like factor 5 (Homo sapiens) (UniProt Q13887)
Experiment: KLF5 protein abundance by immunoblot – western blot, chemiluminescence, HCT116 colorectal cells, counter-screen for KLF5 inhibitor project, late-stage follow-up (AID 588652)
Conditions: HCT116 KLF5 protein level, 24 h, at 10 µM, active compounds read high

Sequence of Krueppel-like factor 5 (Homo sapiens) (Q13887 whole entry, looked up): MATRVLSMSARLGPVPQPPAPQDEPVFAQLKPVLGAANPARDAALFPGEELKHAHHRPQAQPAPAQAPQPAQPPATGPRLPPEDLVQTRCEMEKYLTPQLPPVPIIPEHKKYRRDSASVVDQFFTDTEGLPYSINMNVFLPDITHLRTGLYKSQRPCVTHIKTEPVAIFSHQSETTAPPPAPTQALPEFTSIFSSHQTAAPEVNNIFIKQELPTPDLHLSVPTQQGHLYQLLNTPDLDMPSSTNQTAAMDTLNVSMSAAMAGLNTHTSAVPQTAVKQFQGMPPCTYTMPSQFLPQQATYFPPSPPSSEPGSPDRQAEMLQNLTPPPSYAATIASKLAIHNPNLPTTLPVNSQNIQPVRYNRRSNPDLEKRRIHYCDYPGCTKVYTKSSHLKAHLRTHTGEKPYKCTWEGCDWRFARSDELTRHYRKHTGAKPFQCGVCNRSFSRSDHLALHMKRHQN

- inhibition: 62.6%
Compound: CN(C(=O)COC(=O)/C=C/c1cccc([N+](=O)[O-])c1)C1CCS(=O)(=O)C1 (stereo unspecified)
